Laboratory results published in ChEMBL document CHEMBL1146667, “Benzodiazepine-based selective inhibitors of mitochondrial F1F0 ATP hydrolase” (Bioorg Med Chem Lett, 2004).
pIC50: −log10 of the molar value.

How the values were obtained:
[1] = target: T1, Mitochondrial complex V; ATP synthase (Bos taurus, UniProt P00829+P05630+P05631+P05632); assay: Inhibitory activity against bovine mitochondrial F1F0-ATP synthase; assay type: protein-complex assay
[2] = target: T1, Mitochondrial complex V; ATP synthase; assay: Inhibitory activity against bovine mitochondrial F1F0-ATP hydrolase; assay type: protein-complex assay
[3] = target: T2, Cytochrome P450 2C9 (Homo sapiens, UniProt P11712); assay: Inhibitory activity against cytochrome P450 2C9; assay type: ADME
T2 sequence (P11712 whole entry): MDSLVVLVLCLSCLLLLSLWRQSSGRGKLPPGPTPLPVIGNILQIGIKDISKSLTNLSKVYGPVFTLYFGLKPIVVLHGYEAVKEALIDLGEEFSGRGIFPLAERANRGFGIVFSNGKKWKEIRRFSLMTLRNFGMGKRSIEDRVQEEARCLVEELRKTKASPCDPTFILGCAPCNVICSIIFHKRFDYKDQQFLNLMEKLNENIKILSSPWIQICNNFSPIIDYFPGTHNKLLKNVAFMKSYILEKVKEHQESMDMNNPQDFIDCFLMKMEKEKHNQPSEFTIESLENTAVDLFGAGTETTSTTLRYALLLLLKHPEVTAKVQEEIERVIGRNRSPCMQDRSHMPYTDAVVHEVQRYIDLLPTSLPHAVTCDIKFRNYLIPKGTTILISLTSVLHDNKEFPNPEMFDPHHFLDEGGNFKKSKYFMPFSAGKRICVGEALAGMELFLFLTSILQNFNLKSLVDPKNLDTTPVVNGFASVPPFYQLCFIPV

[4] = target: T2, Cytochrome P450 2C9; assay: Inhibitory activity against ccytochrome P450 2C9

T1 sequence (P05632 whole entry): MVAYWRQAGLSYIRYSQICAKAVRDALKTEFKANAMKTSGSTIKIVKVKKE
T1 sequence (P00829 whole entry): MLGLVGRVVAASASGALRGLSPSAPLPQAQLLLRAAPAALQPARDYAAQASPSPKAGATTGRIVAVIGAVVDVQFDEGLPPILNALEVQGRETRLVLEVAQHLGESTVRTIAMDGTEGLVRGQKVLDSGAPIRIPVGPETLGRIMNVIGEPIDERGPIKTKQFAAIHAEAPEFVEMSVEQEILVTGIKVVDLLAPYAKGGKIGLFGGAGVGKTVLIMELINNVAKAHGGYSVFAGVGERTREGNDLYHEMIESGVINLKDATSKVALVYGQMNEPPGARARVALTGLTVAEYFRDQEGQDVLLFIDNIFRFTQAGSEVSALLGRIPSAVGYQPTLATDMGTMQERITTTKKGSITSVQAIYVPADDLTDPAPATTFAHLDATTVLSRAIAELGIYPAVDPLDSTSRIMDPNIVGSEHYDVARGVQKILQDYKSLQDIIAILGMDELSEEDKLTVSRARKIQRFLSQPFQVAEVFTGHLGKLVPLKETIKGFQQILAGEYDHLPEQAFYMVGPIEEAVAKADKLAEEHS
T1 sequence (P05631 whole entry): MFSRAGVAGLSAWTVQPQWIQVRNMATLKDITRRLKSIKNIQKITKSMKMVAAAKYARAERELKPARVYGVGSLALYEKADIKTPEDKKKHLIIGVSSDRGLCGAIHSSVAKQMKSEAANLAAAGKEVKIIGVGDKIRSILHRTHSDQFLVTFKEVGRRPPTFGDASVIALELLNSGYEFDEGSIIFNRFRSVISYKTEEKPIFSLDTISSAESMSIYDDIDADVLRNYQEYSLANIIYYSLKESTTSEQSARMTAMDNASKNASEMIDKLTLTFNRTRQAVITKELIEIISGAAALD
T1 sequence (P05630 whole entry): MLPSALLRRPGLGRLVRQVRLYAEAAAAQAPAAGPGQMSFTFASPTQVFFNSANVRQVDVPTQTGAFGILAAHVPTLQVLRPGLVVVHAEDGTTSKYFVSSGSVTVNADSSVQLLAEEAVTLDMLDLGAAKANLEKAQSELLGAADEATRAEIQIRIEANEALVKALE

Structure (SMILES) | pIC50 [1] | pIC50 [2] | pIC50 [3] | pIC50 [4]
Cc1nc[nH]c1CN1c2ccccc2CN(Cc2ccc(C(C)(C)C)cc2)CC1CCc1ccccc1 (centres undefined) | < 4.52 | 5.63 |  | 
O=S(=O)(N1Cc2ccccc2N(Cc2c[nH]cn2)C(CCc2ccccc2)C1)C(F)(F)F (centres undefined) | < 4.52 | 7.11 |  | 
CC(C)(C)c1ccc(CN2Cc3ccccc3N(Cc3cnc[nH]3)C(CCc3ccccc3)C2)cc1 (centres undefined) | < 4.52 | 5.67 |  | 
O=S(=O)(c1cc(Cl)ccc1Cl)N1Cc2ccccc2N(Cc2cnc[nH]2)C(CCc2ccccc2)C1 (centres undefined) | < 4.52 | 6.80 |  | 
N#Cc1ccc(S(=O)(=O)N2Cc3ccccc3N(Cc3c[nH]cn3)C(CCc3ccccc3)C2)c(Cl)c1 (centres undefined) | < 4.52 | 6.03 |  | 
O=S(=O)(c1cccc2ccccc12)N1Cc2ccccc2N(Cc2cnc[nH]2)C(CCc2ccccc2)C1 (centres undefined) | < 4.52 | 6.47 |  | 
O=S(=O)(c1ccccc1)N1Cc2ccccc2N(Cc2cnc[nH]2)C(CCc2ccccc2)C1 (centres undefined) | < 4.52 | 6.55 |  | 
O=[N+]([O-])c1cccc(S(=O)(=O)N2Cc3ccccc3N(Cc3cnc[nH]3)C(CCc3ccccc3)C2)c1 (centres undefined) | < 4.52 | 6.37 |  | 
O=S(=O)(Cc1ccccc1)N1Cc2ccccc2N(Cc2c[nH]cn2)C(CCc2ccccc2)C1 (centres undefined) | < 4.52 | 5.62 |  | 
O=S(=O)(c1cccs1)N1Cc2ccccc2N(Cc2cnc[nH]2)C(CCc2ccccc2)C1 (centres undefined) | < 4.52 | 6.20 |  | 
CC(C)(C)c1ccc(S(=O)(=O)N2Cc3ccccc3N(Cc3c[nH]cn3)C(CCc3ccccc3)C2)cc1 (centres undefined) | < 4.52 | 8.10 |  | 7.42
O=S(=O)(c1cccc2nonc12)N1Cc2ccccc2N(Cc2cnc[nH]2)C(CCc2ccccc2)C1 (centres undefined) | < 4.52 | 5.75 |  | 
O=S(=O)(c1cccc2cccnc12)N1Cc2ccccc2N(Cc2c[nH]cn2)C(CCc2ccccc2)C1 (centres undefined) | < 4.52 | 5.53 |  | 

More lines, main results first:

pIC50 [1] | pIC50 [2] | pIC50 [3] | Structure (SMILES) | pIC50 [4]
< 4.52 | 7.66 | 5.70 | Cc1nc[nH]c1CN1c2ccccc2CN(S(=O)(=O)c2ccc(Cl)c(Cl)c2)CC1CCc1ccccc1 (centres undefined) | 
< 4.52 | 7.11 |  | COc1ccc(S(=O)(=O)N2Cc3ccccc3N(Cc3c[nH]cn3)C(CCc3ccccc3)C2)cc1 (centres undefined) | 
< 4.52 | 6.59 |  | N#Cc1ccc(S(=O)(=O)N2Cc3ccccc3N(Cc3cnc[nH]3)C(CCc3ccccc3)C2)cc1 (centres undefined) | 
< 4.52 | 6.18 |  | O=S(=O)(c1ccc(O)cc1)N1Cc2ccccc2N(Cc2cnc[nH]2)C(CCc2ccccc2)C1 (centres undefined) | 
< 4.52 | 6.66 |  | O=S(=O)(c1ccc(F)cc1)N1Cc2ccccc2N(Cc2c[nH]cn2)C(CCc2ccccc2)C1 (centres undefined) | 
< 4.52 | < 5.00 |  | CC(C)(C)c1ccc(S(=O)(=O)N2Cc3ccccc3N(Cc3ncc[nH]3)C(CCc3ccccc3)C2)cc1 (centres undefined) | 
< 4.52 | 7.11 | 5.52 | Cc1[nH]cnc1CN1c2ccccc2CN(S(=O)(=O)c2ccc(C(C)(C)C)cc2)CC1CCc1ccccc1 (centres undefined) | 
< 4.52 | 5.53 |  | CC(=O)Nc1ccc(S(=O)(=O)N2Cc3ccccc3N(Cc3cnc[nH]3)C(CCc3ccccc3)C2)cc1 (centres undefined) | 
< 4.52 | 5.02 |  | Cc1nc(CN2c3ccccc3CN(S(=O)(=O)c3ccc(F)cc3)CC2CCc2ccccc2)c[nH]1 (centres undefined) | 
< 4.52 | 6.82 |  | Cc1nc[nH]c1CN1c2ccccc2CN(S(=O)(=O)c2ccc(F)cc2)CC1CCc1ccccc1 (centres undefined) | 
